In PMC11919252 (eLife, 2025):

Columns and labels:
[1] = tested on: WT and Tac1::Calca DKO mice; assay: Oxaliplatin cold allodynia, Cold Plate; type: in vivo, mouse; settings: intraplantar oxaliplatin, one day after treatment, Cold Plate at 10 °C, 5 min
Description: The plate was set to the desired temperature. A camera set up with a mirror was used for better visibility of the mouse on the hot plate. A clear cylindrical tube was placed around the hot plate to ensure the mouse cannot escape. Once the hot plate reached the set temperature, the mouse was placed on the hot plate and the top of the cylinder was covered. At the cut-off time, the mouse was taken off the hot plate and placed back in the cage. The latency to lick was scored post-hoc using the recorded videos by a blinded observer.
Chemotherapy-induced neuropathy was induced in mice by intraplantar injection of oxaliplatin into the left hind paw ([Deuis et al., 2013]; [MacDonald et al., 2021]). Oxaliplatin was made up to a dose of 80 µg in 40 µl of 5% glucose solution, due to its instability in chloride-containing saline solution. The number of nocifensive behaviors in 5 min was assessed on the Cold Plate held at 10 °C 24 hr later.

[2] = tested on: WT and Tac1::Calca DKO mice; settings: background statement on oxaliplatin; ref MacDonald et al., 2021; cited from earlier work
Description: Lastly, we investigated how dual peptide deletion affected the development of allodynia symptoms, where innocuous stimuli are perceived as painful, in two mouse models of neuropathic pain ([Jensen and Finnerup, 2014]).

## O=C1[O][Pt]2([NH][C@@H]3CCCC[C@H]3[NH]2)[O]C1=O [oxaliplatin]
[1]
  Pain-like behaviors on Cold Plate: both DKO and WT animals displayed pronounced pain-like behaviors
[2]
  Cold allodynia evoked by oxaliplatin: evokes extreme cold allodynia
